Biological target: T1, GST-GlcNAc 2-epimerase-5D (Synechocystis sp. PCC 6803, UniProt P74124)
T1 construct: gene slr1975; 1209 bp PCR fragment
T1 sequence (P74124 1-391): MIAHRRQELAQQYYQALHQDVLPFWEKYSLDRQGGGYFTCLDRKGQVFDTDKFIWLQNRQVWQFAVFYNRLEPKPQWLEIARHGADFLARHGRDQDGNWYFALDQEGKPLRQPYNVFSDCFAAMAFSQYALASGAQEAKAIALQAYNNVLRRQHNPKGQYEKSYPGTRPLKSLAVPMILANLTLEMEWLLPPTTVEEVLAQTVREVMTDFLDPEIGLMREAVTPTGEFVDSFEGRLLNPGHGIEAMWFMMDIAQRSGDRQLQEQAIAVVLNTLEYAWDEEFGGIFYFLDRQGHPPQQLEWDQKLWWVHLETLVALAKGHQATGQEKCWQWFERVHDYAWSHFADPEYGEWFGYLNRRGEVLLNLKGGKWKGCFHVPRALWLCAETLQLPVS
Assay: enzyme inhibition kinetics
Type: biochemical
Conditions: read-out: inhibition constant

Ki: 31 mM
SMILES: CC(=O)C(=O)O [pyruvate]

— PMC2722590, “Production of N-acetyl-D-neuraminic acid using two sequential enzymes overexpressed as double-tagged fusion proteins” (BMC Biotechnology, 2009)
